{"source": "patent US7375103B2", "about": "“Optically active pyridine derivative and a medicament containing the same” (Bayer HealthCare AG, priority 2002, dated 2008)", "key": {"[1]": {"test": "cellular assays (not further specified)", "format": "cell-based", "protocol": "[The Measurement of RANTES Production in Response to TNF-α from A549 cells]\n(1) Preparation of A549 Cells\n• The A549 human lung epithelium cell line (ATCC […]) was maintained in Dulbecco's modified Eagle's medium (D-MEM, Nikken Biomedical Institute) supplemented with 10% FCS (Gibco), 100 U/ml penicillin, 100 μg/ml streptomycin, and 2 mM glutamine (culture medium). Forty thousand (4×10^4) cells (80 μl/well) were seeded in each well of 96 well flat-bottom tissue culture plate (Falcon #3072). The plate was allowed to stand for 2 hrs, thus the cells were adhered to the bottom of each well. To the each well was added 10 μl vehicle (1% DMSO), serial dilutions of test compounds in 1% DMSO, or 5 nM Dexamethasone in 1% DMSO as a reference. The mixture (90 μl/well) was incubated for 1 hr at 37° C. After 1 hr, 1 μg/ml TNF-α (10 μl) in culture medium was added to the mixture to obtain 100 μl of reaction mixture. The reaction mixture was cultured for 24 hrs to stimulate the cells with 100 ng/ml TNF-α. […] (2) Measurement of RANTES Production • Then the concentration of RANTES released from the cells in the supernatants of each well was determined using a quantitative sandwich enzyme immunoassay technique. […] Fluorescent intensity was measured using a DELFIA fluorimeter (Wallac). Excitation was performed at 340 nm and emission was measured at 615 nm. […]"}, "[2]": {"system": "LPS-induced TNF-α production", "test": "Rat LPS-induced TNF-α production", "format": "in vivo, Wistar female rats", "conditions": "in Rat", "protocol": "[Rat LPS-Induced TNF-α Production]\nSeven weeks old Wistar female rats were used. One mg of LPS (lypopolysaccharide) dissolved in phosphate buffer saline (pH 7.4) was administered intraperitoneally (i.p.) to rats. Compounds were given orally 60 minutes prior to the LPS injection. Under anesthesia with pentobarbital (80 mg/kg, i.p.), blood was collected from the posterior venous cavity of the rats 120 minutes post-LPS injection and added into 96-well plate containing 2% EDTA solution. The plasma was separated by centrifugation at 1800 rpm for 10 minutes at 4° C. and then diluted with four times volumes of phosphate buffer saline (H 7.4) containing 1% bovine serum albumin. TNF-α concentration in the sample was determined using an ELISA kit (Endogen, Boston, Mass.).\nThe mean TNF-α level in 7-8 rats from each group was determined and the percent reduction in TNF-α levels was calculated."}}}
{"molecule": "O=C1Nc2nc(-c3c(O)cccc3OCC3CC3)cc([C@@H]3CCCNC3)c2CO1", "note": "[the compound of the present invention, (−)-7-[2-(cyclopropylmethoxy)-6-hydroxy-phenyl]-5-[(3S)-3-piperidinyl]-1,4-hydro-2H-pyrido [2,3-d][1,3]oxazin-2-one]", "values": [{"measurement": "mutagenicity according to the Ames-Test Screening", "setting": "Ames-Test Screening", "result": "non-mutagenic"}, {"measurement": "cellular activity compared with corresponding racemic modification", "setting": "[1]", "result": "twice as strong as corresponding racemic modification"}, {"measurement": "anti-inflammatory activity compared with corresponding racemic modification", "setting": "[2]", "result": "twice as strong as corresponding racemic modification"}]}
